Here are results for eight molecules from PubChem BioAssay (NCI).

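Cultured in 96-well plates, cells were exposed to test compound for 48 hours across five concentrations. TGI is the concentration that stops growth completely.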

Some test systems named below: LOX IMVI melanoma; IGROV1 ovarian; ACHN renal; SN12C renal; TK-10 renal; M14 melanoma; SF-268 CNS; RXF 393 renal; SR leukemia; SNB-75 CNS; NCI-H23 lung; OVCAR-3 ovarian; MDA-N; OVCAR-5 ovarian; A498 renal; CCRF-CEM leukemia; HT29 colon; T-47D breast; RPMI-8226 leukemia; MDA-MB-231 breast.
Common to all, as to assay: NCI-60 cell line screen, 48 h

For `O=[N+]([O-])c1ccc(-c2ccc([C@H]3CC(c4cc(F)c(Cl)cc4Cl)=NN3)o2)cc1`, the TGI in the assay on LOX IMVI melanoma, in the assay on IGROV1 ovarian, in the assay on ACHN renal, in the assay with SN12C renal, in the assay with TK-10 renal and in the assay on M14 melanoma was greater than 100 µM each time. Moreover, the TGI in the assay on SF-268 CNS was greater than 100 µM; with RXF 393 renal, greater than 100 µM; in the assay with SR leukemia it was 77.1 µM; in the assay on SNB-75 CNS, 71.4 µM; in the assay with NCI-H23 lung, 32.9 µM; in the assay on OVCAR-3 ovarian, greater than 100 µM. In addition, the TGI in the assay with MDA-N is greater than 100 µM; in the assay on OVCAR-5 ovarian, greater than 100 µM; in the assay on A498 renal, greater than 100 µM; in the assay on CCRF-CEM leukemia, 35.1 µM; with HT29 colon, greater than 100 µM; in the assay with T-47D breast it was 61.8 µM. Also, the TGI in the assay on RPMI-8226 leukemia was greater than 100 µM.

Take `CC(=O)Nc1ccc2c3c(cc(O)c2c1)N(C(=O)CCCCCCC(=O)Nc1ccc2c4c(cc(O)c2c1)N(C(=O)OC(C)(C)C)CC4CCl)CC3CCl` (stereo not drawn): the TGI with LOX IMVI melanoma was greater than 33.4 µM; in the assay with IGROV1 ovarian it was greater than 33.8 µM; in the assay on ACHN renal, 0.465 µM; in the assay on SN12C renal, 2.59 µM; in the assay on M14 melanoma it was 0.374 µM; in the assay on SF-268 CNS it was 1.67 µM. Further, the TGI was determined as 0.0392 µM with RXF 393 renal; 0.0243 µM in the assay on SR leukemia; 0.284 µM in the assay with SNB-75 CNS; 0.346 µM in the assay on NCI-H23 lung; 0.263 µM in the assay on OVCAR-3 ovarian; 0.332 µM in the assay on MDA-N. Besides, the TGI came to 0.663 µM with OVCAR-5 ovarian, 0.0819 µM in the assay on A498 renal, 0.0259 µM with CCRF-CEM leukemia and 2.3 µM with T-47D breast.

Take `CCCCCCCC(=O)N1C2CC3CCC2(CS1(=O)=O)C3(C)C` (stereo not drawn): the TGI in the assay on IGROV1 ovarian was greater than 100 µM; with ACHN renal, greater than 100 µM; with SN12C renal, 49.1 µM; with TK-10 renal, greater than 100 µM; in the assay with M14 melanoma, 41 µM; in the assay with SF-268 CNS, greater than 100 µM. The TGI is 31.8 µM in the assay on RXF 393 renal; 40.8 µM with SR leukemia; greater than 100 µM in the assay with SNB-75 CNS; greater than 100 µM in the assay on NCI-H23 lung; greater than 10 µM in the assay with OVCAR-3 ovarian; 72 µM in the assay with MDA-N. In addition, the TGI in the assay on OVCAR-5 ovarian was greater than 100 µM; in the assay with A498 renal, greater than 100 µM; in the assay with CCRF-CEM leukemia, 44.8 µM; in the assay on HT29 colon, greater than 10 µM; in the assay on RPMI-8226 leukemia, 41.5 µM.

Take `CC(=O)OCCn1c(Cc2ccc(Cl)cc2)nn(C(C)=O)c1=O`: the TGI with LOX IMVI melanoma, in the assay on IGROV1 ovarian, in the assay with ACHN renal, with SN12C renal, in the assay on TK-10 renal and with M14 melanoma was greater than 100 µM in each case. The TGI in the assay on SF-268 CNS, in the assay on NCI-H23 lung, in the assay with OVCAR-3 ovarian, in the assay with MDA-N, in the assay on OVCAR-5 ovarian and in the assay with A498 renal was greater than 100 µM each time. In addition, the TGI with CCRF-CEM leukemia, with HT29 colon, in the assay on MDA-MB-231 breast, in the assay with T-47D breast and with RPMI-8226 leukemia was greater than 100 µM in each case.

For the molecule `COC(=O)c1c(O)ccc2c1c1c(n2CCc2ccccc2)C(=O)c2ccccc2C1`, the TGI with LOX IMVI melanoma is greater than 100 µM; in the assay with IGROV1 ovarian, 46 µM; with SN12C renal it was 35.4 µM; with TK-10 renal, greater than 100 µM; with M14 melanoma, 55.2 µM; in the assay on SF-268 CNS it was 41 µM. Moreover, the TGI in the assay on RXF 393 renal is 31.3 µM; with SR leukemia, greater than 100 µM; with SNB-75 CNS, 54.1 µM; in the assay with NCI-H23 lung, 74.1 µM; with OVCAR-3 ovarian it was 47.5 µM; with MDA-N it was greater than 100 µM. For the same molecule, the TGI in the assay with A498 renal came to 40.5 µM; in the assay on CCRF-CEM leukemia, 60.6 µM; in the assay with HT29 colon, 70.4 µM; in the assay on MDA-MB-231 breast, 57 µM; with RPMI-8226 leukemia it was 34 µM.

`O=C(O)CN1CCN2CCOCCN(CC1)CCN(CC(=O)O)CC2`: the TGI in the assay on LOX IMVI melanoma, with IGROV1 ovarian, in the assay with ACHN renal, in the assay on SN12C renal, with TK-10 renal and in the assay on M14 melanoma was greater than 100 µM throughout. Besides, the TGI in the assay on SF-268 CNS, in the assay with RXF 393 renal, in the assay with SR leukemia, in the assay on SNB-75 CNS, with NCI-H23 lung and in the assay on OVCAR-3 ovarian was greater than 100 µM each time. Further, the TGI with OVCAR-5 ovarian, in the assay on A498 renal, with CCRF-CEM leukemia, in the assay on HT29 colon, with MDA-MB-231 breast and in the assay on T-47D breast was greater than 100 µM in each case. Besides, the TGI with RPMI-8226 leukemia was greater than 100 µM.

Regarding `CCOC(=O)c1cn2c(n1)sc1cc([N+](=O)[O-])ccc12`, the TGI with LOX IMVI melanoma, in the assay with IGROV1 ovarian, in the assay with ACHN renal, in the assay with SN12C renal, in the assay on TK-10 renal and in the assay with M14 melanoma was greater than 100 µM throughout. Further, the TGI in the assay with SF-268 CNS, in the assay on RXF 393 renal, in the assay on SR leukemia, with SNB-75 CNS, in the assay with NCI-H23 lung and in the assay on OVCAR-3 ovarian was greater than 100 µM in each case. The TGI in the assay with OVCAR-5 ovarian, in the assay on A498 renal, with CCRF-CEM leukemia, in the assay on HT29 colon, with MDA-MB-231 breast and in the assay with T-47D breast was greater than 100 µM each time. Further, in the assay on RPMI-8226 leukemia, the TGI is greater than 100 µM.

For the molecule `C[C@H]1CC(=O)C[C@@H]2CC[C@@H]3[C@H](CC[C@]4(C)C(OC(=O)c5cccc6c(=O)c7ccccc7[nH]c56)CC[C@@H]34)[C@]21C` (stereo partly drawn), the TGI in the assay with LOX IMVI melanoma, in the assay on IGROV1 ovarian, in the assay with ACHN renal, in the assay with SN12C renal, with TK-10 renal and in the assay on M14 melanoma was greater than 100 µM throughout. Moreover, the TGI in the assay on SF-268 CNS is greater than 100 µM; in the assay on RXF 393 renal, greater than 100 µM; in the assay with SR leukemia, 21.6 µM; with SNB-75 CNS, 92.8 µM; in the assay on NCI-H23 lung, greater than 100 µM; in the assay on OVCAR-3 ovarian it was greater than 100 µM. In addition, the TGI is greater than 100 µM in the assay with OVCAR-5 ovarian; greater than 100 µM in the assay on A498 renal; 73.2 µM in the assay with CCRF-CEM leukemia; greater than 100 µM in the assay on HT29 colon; greater than 100 µM with MDA-MB-231 breast; greater than 100 µM with T-47D breast. In the assay on RPMI-8226 leukemia, this molecule came in with a TGI of 55.6 µM.
